The source of these data is patent US11254688B2 (Boehringer Ingelheim International GmbH, priority 2018, dated 2022).

For this test, the target named is T1, hGOAT (Homo sapiens, UniProt Q96T53).
T1 construct: expressed in transfected cells; host or cells: HEK293 (Hek293 hGOAT/PPGhrl Clone #1B8)
T1 sequence (Q96T53 1-435): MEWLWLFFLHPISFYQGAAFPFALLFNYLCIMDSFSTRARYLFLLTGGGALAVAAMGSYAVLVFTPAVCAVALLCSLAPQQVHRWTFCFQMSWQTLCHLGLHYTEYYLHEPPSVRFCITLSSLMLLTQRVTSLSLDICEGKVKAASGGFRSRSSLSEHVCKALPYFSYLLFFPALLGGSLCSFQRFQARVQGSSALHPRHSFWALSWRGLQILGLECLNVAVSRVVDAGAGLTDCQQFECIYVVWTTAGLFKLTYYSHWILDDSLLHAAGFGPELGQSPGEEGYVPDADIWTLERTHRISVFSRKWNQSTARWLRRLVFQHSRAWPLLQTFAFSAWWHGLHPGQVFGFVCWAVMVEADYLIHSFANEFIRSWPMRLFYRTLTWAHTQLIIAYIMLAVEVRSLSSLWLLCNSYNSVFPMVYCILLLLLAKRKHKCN
Description: Determination of hGOAT activity in HEK293 cells after incubation with test compound (acyl-ghrelin ELISA). The format is cell-based. The settings on record: HEK293 cells stably transfected with preproghrelin and human GOAT; octanoate-BSA 100 μM; 5 hours incubation; acyl-ghrelin in medium by ELISA; 8 compound concentrations. On the procedure: Determination of hGOAT Activity in HEK293 Cells after Incubation with Test Compound
HEK293 cells stably transfected with two expression vectors, one coding for preproghrelin cDNA and a second for the expression of human GOATcDNA are used as a cellular model. After feeding the cells with octanoic acid for 5 hours, acyl-ghrelin is measured in cell culture medium by an ELISA procedure.
Cellline: Hek293 hGOAT/PPGhrl Clone #1B8Sodium octanoate, Sigma, Cat.-No. C5038
BD Poly-D-Lysin 384-well Plates, black-clear polystyrene BD Bioscience Cat.-No. […] ELISA human acylated Ghrelin Kit purchased from Bertin Pharman (detailed composition of buffers e.g. wash-puffer, ELISA buffer not known)
Cells are plated with a density of 5000 cells/well in 384-well poly-D-lysin plates and incubated for 1 day at 37° C., 5% CO2 in DMEM medium, 10% FCS, 1×NEAA, Puromycin (0.5 μg/ml) and G418 (1 mg/ml). Then the medium is changed to a identical medium without FCS and containing Octanoate-BSA (final concentration 100 μM each) and compound in DMSO (final DMSO concentration 0,3%). After incubation for 5 hours acylghrelin in the medium is measured by ELISA.
The medium sample is diluted 1:25 in Elisa buffer, a 25 μl aliquot is transferred to a 384-well ELISA plate previously washed 4 times with 100 μL wash buffer, and 25 μl tracer-solution is added. After incubation overnight (˜20 h) at 4° C. temperature the plate is washed 4 times with 100 μl wash-buffer per well. Finally 50 μl Ellman's reagent is added to each well and the plate is incubated in the dark for 20 minutes. The absorbance is measured at 405 nm in an Envision multilabel reader and the amount of acylated ghrelin is calculated according to a acylated ghrelin standard curve provided in the same plate.
The analysis of the data is performed by calculation of the percentage of acyl-ghrelin produced in the presence of test compound compared to the amount of acyl-ghrelin produced in the vehicle control samples. An inhibitor of the GOAT enzyme will give values between 100% CTL (no inhibition) and 0% CTL (complete inhibition).
IC50 values are calculated with Assay Explorer or other suited software based on curve fitting of results of 8 different compound concentrations.
Regarding `Cc1nc2nonc2c(N)c1Cc1ccc(OCC2CC2(F)F)nc1` (stereo in doubt) [Compound 21.13, 6-[(6-{[(1R)-2,2-Difluorocyclopropyl]methoxy}pyridin-3-yl)methyl]-5-methyl-[1,2,5]oxadiazolo[3,4-b]pyridin-7-amine], half-maximal inhibition (IC50) required 0.718 nM. `Cc1nc2nonc2c(N)c1Cc1ccc(Br)cc1` [Compound 1.1, 6-[(4-Bromophenyl)methyl]-5-methyl-[1,2,5]oxadiazolo[3,4-b]pyridin-7-amine]: the IC50 came to 0.225 nM. The figure for `Cc1nc2nonc2c(N)c1Cc1ccc(OC(F)(F)F)cc1` [Compound 1.2, 5-Methyl-6-{[4-(trifluoromethoxy)phenyl]methyl}-[1,2,5]oxadiazolo[3,4-b]pyridin-7-amine] is 0.387 nM; for `Cc1nc2nonc2c(N)c1Cc1ccc(C(F)(F)F)cc1` [Compound 1.3, 5-Methyl-6-{[4-(trifluoromethyl)phenyl]methyl}-[1,2,5]oxadiazolo[3,4-b]pyridin-7-amine] it is 0.294 nM; for `Cc1nc2nonc2c(N)c1Cc1ccc(I)cc1` [Compound 1.4, 6-[(4-Iodophenyl)methyl]-5-methyl-[1,2,5]oxadiazolo[3,4-b]pyridin-7-amine] it is 0.127 nM. The figure for `COc1cc(OC(F)(F)F)ccc1Cc1c(C)nc2nonc2c1N` [Compound 2.1, 6-{[2-Methoxy-4-(trifluoromethoxy)phenyl]methyl}-5-methyl-[1,2,5]oxadiazolo[3,4-b]pyridin-7-amine] is 0.092 nM; for `COc1cc(C(F)(F)F)ccc1Cc1c(C)nc2nonc2c1N` [Compound 2.2, 6-{[2-Methoxy-4-(trifluoromethyl)phenyl]methyl}-5-methyl-[1,2,5]oxadiazolo[3,4-b]pyridin-7-amine] it is 0.066 nM; for `COc1cc(Br)ccc1Cc1c(C)nc2nonc2c1N` [Compound 2.3, 6-[(4-Bromo-2-methoxyphenyl)methyl]-5-methyl-[1,2,5]oxadiazolo[3,4-b]pyridin-7-amine] it is 0.06 nM. `COc1cc(C#N)ccc1Cc1c(C)nc2nonc2c1N` [Compound 2.4, 4-({7-Amino-5-methyl-[1,2,5]oxadiazolo[3,4-b]pyridin-6-yl}methyl)-3-methoxybenzonitrile] registered a 50% inhibitory concentration (IC50) of 0.133 nM. Take `COc1cc(Cc2c(C)nc3nonc3c2N)ccc1C#N` [Compound 2.5, 4-({7-Amino-5-methyl-[1,2,5]oxadiazolo[3,4-b]pyridin-6-yl}methyl)-2-methoxybenzonitrile]: the IC50 turned out to be 0.402 nM.

In turn, `Cc1nc2nonc2c(N)c1Cc1cccc(Br)c1` [Compound 2.6, 6-[(3-Bromophenyl)methyl]-5-methyl-[1,2,5]oxadiazolo[3,4-b]pyridin-7-amine] came in with a half-maximal inhibitory concentration (IC50) of 1.4 nM.

In turn, `Cc1nc2nonc2c(N)c1Cc1ccc(F)cc1F` [Compound 2.7, 6-[(2,4-Difluorophenyl)methyl]-5-methyl-[1,2,5]oxadiazolo[3,4-b]pyridin-7-amine] showed an IC50 of 0.353 nM.

`Cc1nc2nonc2c(N)c1Cc1ccc(C#N)cc1` [Compound 2.8, 4-({7-Amino-5-methyl-[1,2,5]oxadiazolo[3,4-b]pyridin-6-yl}methyl)benzonitrile] yielded an IC50 of 0.416 nM. With `Cc1nc2nonc2c(N)c1Cc1ccc(F)c(C#N)c1` [Compound 2.9, 5-({7-Amino-5-methyl-[1,2,5]oxadiazolo[3,4-b]pyridin-6-yl}methyl)-2-fluorobenzonitrile], the IC50 was determined as 2.01 nM. `COC(=O)c1ccc(Cc2c(C)nc3nonc3c2N)cc1` [Compound 2.10, Methyl 4-({7-amino-5-methyl-[1,2,5]oxadiazolo[3,4-b]pyridin-6-yl}methyl)benzoate] showed an IC50 of 0.132 nM. As for `COc1ncccc1Cc1c(C)nc2nonc2c1N` [Compound 2.11, 6-[(2-Methoxypyridin-3-yl)methyl]-5-methyl-[1,2,5]oxadiazolo[3,4-b]pyridin-7-amine], it took 1.07 nM to reach half-maximal inhibition (IC50).

As to `Cc1nc2nonc2c(N)c1Cc1ccc(S(C)(=O)=O)cc1` [Compound 2.12, 6-[(4-Methanesulfonylphenyl)methyl]-5-methyl-[1,2,5]oxadiazolo[3,4-b]pyridin-7-amine], the IC50 was 0.49 nM.

For `Cc1nc2nonc2c(N)c1Cc1cccc2c1cnn2C` [Compound 2.13, 5-Methyl-6-[(1-methyl-1H-indazol-4-yl)methyl]-[1,2,5]oxadiazolo[3,4-b]pyridin-7-amine], half-maximal inhibition (IC50) required 0.66 nM. The compound `Cc1nc2nonc2c(N)c1Cc1ccc(OC(F)(F)F)c(Br)c1` [Compound 2.14, 6-{[3-Bromo-4-(trifluoromethoxy)phenyl]methyl}-5-methyl-[1,2,5]oxadiazolo[3,4-b]pyridin-7-amine] yielded a 50% inhibitory concentration (IC50) of 0.096 nM.

`Cc1nc2nonc2c(N)c1Cc1ccc(CC#N)cc1` [Compound 2.15, 2-[4-({7-Amino-5-methyl-[1,2,5]oxadiazolo[3,4-b]pyridin-6-yl}methyl)phenyl]acetonitrile]: it took 0.887 nM to reach half-maximal inhibition (IC50).

Regarding `Cc1nc2nonc2c(N)c1Cc1ccccc1` [Compound 2.16, 6-Benzyl-5-methyl-[1,2,5]oxadiazolo[3,4-b]pyridin-7-amine], the midpoint of inhibition, the IC50, lay at 3.03 nM.

On to `Cc1nc2nonc2c(N)c1C(=O)c1ccc(C(F)(F)F)cc1` [Compound 3.1, 5-Methyl-6-[4-(trifluoromethyl)benzoyl]-[1,2,5]oxadiazolo[3,4-b]pyridin-7-amine], for which the IC50 came to 5.83 nM. `Cc1nc2nonc2c(N)c1Cc1ccc(F)c(F)c1` [Compound 4.0, 6-[(3,4-Difluorophenyl)methyl]-5-methyl-[1,2,5]oxadiazolo[3,4-b]pyridin-7-amine] displayed a half-inhibitory concentration (IC50) of 0.494 nM. The figure for `Cc1nc2nonc2c(N)c1Cc1ccc(Cl)c(Cl)c1` [Compound 4.1, 6-[(3,4-Dichlorophenyl)methyl]-5-methyl-[1,2,5]oxadiazolo[3,4-b]pyridin-7-amine] is 0.246 nM. The compound `Cc1nc2nonc2c(N)c1Cc1cccc(F)c1` [Compound 4.2, 6-[(3-Fluorophenyl)methyl]-5-methyl-[1,2,5]oxadiazolo[3,4-b]pyridin-7-amine] yielded a half-maximal inhibitory concentration (IC50) of 2.26 nM.

As to `COc1ccc(Cc2c(C)nc3nonc3c2N)cn1` [Compound 4.3, 6-[(6-Methoxypyridin-3-yl)methyl]-5-methyl-[1,2,5]oxadiazolo[3,4-b]pyridin-7-amine], the 50% inhibitory concentration (IC50) was found to be 1.58 nM. `Cc1nc2nonc2c(N)c1Cc1ccc(F)nc1` [Compound 4.4, 6-[(6-Fluoropyridin-3-yl)methyl]-5-methyl-[1,2,5]oxadiazolo[3,4-b]pyridin-7-amine] yielded an IC50 of 4.06 nM. Consider `Cc1nc2nonc2c(N)c1Cc1ccc(C(F)(F)F)nc1` [Compound 4.5, 5-Methyl-6-{[6-(trifluoromethyl)pyridin-3-yl]methyl}-[1,2,5]oxadiazolo[3,4-b]pyridin-7-amine], for which half-maximal inhibition (IC50) required 1.59 nM. `Cc1nc2nonc2c(N)c1Cc1ccc(C#N)nc1` [Compound 4.6, 5-({7-Amino-5-methyl-[1,2,5]oxadiazolo[3,4-b]pyridin-6-yl}methyl)pyridine-2-carbonitrile] yielded a concentration for half-maximal inhibition (IC50) of 3.1 nM. The figure for `Cc1nc2nonc2c(N)c1Cc1ccc(C(C)(C)C)nc1` [Compound 4.7, 6-[(6-tert-butylpyridine-3-yl)methyl]-5-methyl-[1,2,5]oxadiazolo[3,4-b]pyridin-7-amine] is 0.124 nM.
